Results reported in article PMC9706574, “A Versatile and Sustainable Multicomponent Platform for the Synthesis of Protein Degraders: Proof-of-Concept Application to BRD4-Degrading PROTACs” (Journal of Medicinal Chemistry, 2022).
Where a SMILES comes first, the peptide text is derived from it. [ ]: non-standard residue; d: D form. The star is where a group is joined. JQ1acid = Cc1sc2c(c1C)C(c1ccc(Cl)cc1)=N[C@@H](CC(=O)*)c1nnc(C)n1-2; NHBn(4-(4-Me-thiazol-5-yl)) = Cc1ncsc1-c1ccc(CN*)cc1; Hyp = O=C(O)[C@@H]1C[C@@H](O)CN1; Tle = CC(C)(C)[C@H](N)C(=O)O; Sar = CNCC(=O)O

Experiments:
BRD4 = target: T1, BRD4 (Homo sapiens, UniProt O60885); test: BRD4 degradation by Western blot analysis in MDA-MB-231 cells; format: cell-based
T1 construct: endogenous in cells; host or cells: MDA-MB-231
Description: In Vitro Biological Validation of PROTACs and Preliminary Assessment of Thermodynamic Aqueous Solubility and Metabolic Stability of Selected BRD4-Degrading PROTACs. With the aim of proving the utility of our platform and the compatibility of the substructures accessible by the MCR strategy with a proximity-based degradation, the ability of our PROTAC candidates to effectively act as BRD4 degraders was tested in the human breast cancer cell line MDA-MB-231, known to express detectable levels of this protein.
The human breast adenocarcinoma MDA-MB-231 cell line was cultured in DMEM (Sigma-Aldrich) supplemented with 10% fetal bovine serum (FBS), 1% glutamine, and 1% penicillin/streptomycin. For Western blot analysis, […] cells/well were plated into 12-well plates containing DMEM complete growth medium, to be treated with the synthesized compounds, at the indicated concentrations, for different time lengths. After treatments, cells were scraped and lysed to obtain protein extract using RIPA lysis buffer supplemented with protease (PIC, Merck-Millipore) and phosphatase inhibitors (NaF 1 M, Na3VO4 1 M, PMSF […], Sigma-Aldrich). Cells lysates were centrifuged at 13 000 rpm for 10 min at 4 °C to remove membranes and insoluble fractions. Protein quantification of the supernatant fraction was performed with Braford protein assay (Sigma-Aldrich). […] aliquots of protein extracts were used for 12% SDS-PAGE. After transfer into nitrocellulose membranes, BRD4 and tubulin protein levels were evaluated by immunoblotting using a rabbit polyclonal anti-BRD4 (Bethyl Laboratories) and a mouse monoclonal α-tubulin (Sigma-Aldrich) IgG as primary antibodies and an antirabbit or antimouse HRP-conjugated secondary antibody (Bio-Rad Laboratories). Protein levels were detected by chemiluminescent conversion of the HRP substrate LumiGLO (Thermo Fisher Scientific) using the ChemiDoc imaging system (Bio-Rad). Band densitometry was assessed, normalized to α-tubulin immunoreactive bands, and reported as percentage of the 0.3% DMSO control lane.

Row | Structure (SMILES) | melting point | dose-response of BRD4 degradation (in words) (BRD4; 100 nM to 10 μM, 8 h, MDA-MB-231 cells) | effect of cotreatment with proteasome inhibitor bortezomib on BRD4 degradation (BRD4; 1 μM compound + 5 nM bortezomib, 8 h) | BRD4 degradation in time-course experiments (in words) (BRD4; 1 μM, 4 up to 24 h, MDA-MB-231 cells) | Densitometry (% of control), BRD4-immunoreactive band relative to DMSO vehicle (BRD4; 1 μM, 4 h, MDA-MB-231 cells) | Densitometry (% of control), BRD4-immunoreactive band relative to DMSO vehicle (BRD4; 1 μM, 8 h, MDA-MB-231 cells) | Densitometry (% of control), BRD4-immunoreactive band relative to DMSO vehicle (BRD4; 1 μM, 16 h, MDA-MB-231 cells) | Densitometry (% of control), BRD4-immunoreactive band relative to DMSO vehicle (BRD4; 1 μM, 24 h, MDA-MB-231 cells) | DC50 (BRD4; 8 h treatment, MDA-MB-231 cells, from Western blot densitometry)
1 | Cc1sc2c(c1C)C(c1ccc(Cl)cc1)=N[C@@H](CC(=O)N1CCN(CC(=O)NCCCCOc3cccc4c3C(=O)N(C3CCC(=O)NC3=O)C4=O)CC1)c1nnc(C)n1-2 (stereo partly drawn) [Compound 33, 2-(4-(2-((S)-4-(4-Chlorophenyl)-2,3,9-trimethyl-6H-thieno[3,2-f][1,2,4]triazolo[4,3-a][1,4]diazepin-6-yl)acetyl)piperazin-1-yl)-N-(4-((2-(2,6-dioxopiperidin-3-yl)-1,3-dioxoisoindolin-4-yl)oxy)butyl)acetamide] | 229.4 to 230 °C (dec.) | degradation was observed only at 1 and 3 μM concentrations | abolish BRD4 degradation | able to induce BRD4 degradation, although the onset of this effect was delayed (after 8 h) | 51,8 % of control | 23,1 % of control | 17,4 % of control | 24,4 % of control | 89.9 nM
2 | Cc1sc2c(c1C)C(c1ccc(Cl)cc1)=N[C@@H](CC(=O)N1CCN(CC(=O)NCCOCCOc3cccc4c3C(=O)N(C3CCC(=O)NC3=O)C4=O)CC1)c1nnc(C)n1-2 (stereo partly drawn) [Compound 35, 2-(4-(2-((S)-4-(4-Chlorophenyl)-2,3,9-trimethyl-6H-thieno[3,2-f][1,2,4]triazolo[4,3-a][1,4]diazepin-6-yl)acetyl)piperazin-1-yl)-N-(2-(2-((2-(2,6-dioxopiperidin-3-yl)-1,3-dioxoisoindolin-4-yl)oxy)ethoxy)ethyl)acetamide] | 173.8 to 174.5 °C (dec.) |  |  |  | 107,8 % of control | 40,1 % of control | 39,2 % of control | 72,1 % of control | 
3 | Cc1sc2c(c1C)C(c1ccc(Cl)cc1)=N[C@@H](CC(=O)N1CCN(CC(=O)NCCOCCOCCOc3cccc4c3C(=O)N(C3CCC(=O)NC3=O)C4=O)CC1)c1nnc(C)n1-2 (stereo partly drawn) [Compound 36, 2-(4-(2-((S)-4-(4-Chlorophenyl)-2,3,9-trimethyl-6H-thieno[3,2-f][1,2,4]triazolo[4,3-a][1,4]diazepin-6-yl)acetyl)piperazin-1-yl)-N-(2-(2-(2-((2-(2,6-dioxopiperidin-3-yl)-1,3-dioxoisoindolin-4-yl)oxy)ethoxy)ethoxy)ethyl)acetamide] | 194.5 to 195.8 °C (dec.) |  |  |  | 110,8 % of control | 54,7 % of control | 41,4 % of control | 64,7 % of control | 
4 | Cc1ncsc1-c1ccc(CNC(=O)[C@@H]2C[C@@H](O)CN2C(=O)[C@@H](NC(=O)CNC(=O)CN(C)C(=O)C[C@@H]2N=C(c3ccc(Cl)cc3)c3c(sc(C)c3C)-n3c(C)nnc32)C(C)(C)C)cc1 [Compound 45, (2S,4R)-1-((S)-2-(2-(2-(2-((S)-4-(4-Chlorophenyl)-2,3,9-trimethyl-6H-thieno[3,2-f][1,2,4]triazolo[4,3-a][1,4]diazepin-6-yl)-N-methylacetamido)acetamido)acetamido)-3,3-dimethylbutanoyl)-4-hydroxy-N-(4-(4-methylthiazol-5-yl)benzyl)pyrrolidine-2-carboxamide] (JQ1acid-[Sar]G[Tle][Hyp]-{NHBn(4-(4-Me-thiazol-5-yl))}) | 114.6 to 116 °C |  |  |  | 41,6 % of control | 107,9 % of control |  |  | 
